Measurements from the CheMixHub viscosity set.
“And” between values parts separate entries of the source, which are not always exact repeats. Equal entries are not always repeated. ± gives the uncertainty stated by the source.

Assay: xn = mol fraction of the nth substance listed

CS(C)=O + O
viscosity
Settings	293.15 K	298.15 K
101 kPa, x1 = 0.01	1.11 ± 0.03 mPa·s	–
101 kPa, x1 = 0.01869	–	1.01 ± 0.3 mPa·s
101 kPa, x1 = 0.025	1.23 ± 0.03 mPa·s	–
101 kPa, x1 = 0.039	1.38 ± 0.04 mPa·s	–
101 kPa, x1 = 0.0406	–	1.19 ± 0.36 mPa·s
101 kPa, x1 = 0.05	1.502 ± 0.015 mPa·s	1.318 ± 0.012 mPa·s
101 kPa, x1 = 0.055	1.55 ± 0.04 mPa·s	–
101 kPa, x1 = 0.06619	–	1.44 ± 0.43 mPa·s
101 kPa, x1 = 0.071	1.74 ± 0.04 mPa·s	–
101 kPa, x1 = 0.09	1.97 ± 0.05 mPa·s	–
101 kPa, x1 = 0.11	2.23 ± 0.06 mPa·s	–
101 kPa, x1 = 0.13	2.54 ± 0.06 mPa·s	–
101 kPa, x1 = 0.15	2.815 ± 0.028 mPa·s	2.438 ± 0.025 mPa·s
101 kPa, x1 = 0.16	2.9 ± 0.07 mPa·s	–
101 kPa, x1 = 0.19	3.28 ± 0.08 mPa·s	–
101 kPa, x1 = 0.2	–	3.156 ± 0.034 mPa·s
101 kPa, x1 = 0.22	3.68 ± 0.09 mPa·s	–
101 kPa, x1 = 0.25	4.042 ± 0.043 mPa·s	3.4 ± 0.04 mPa·s
101 kPa, x1 = 0.26	4.02 ± 0.1 mPa·s	–
101 kPa, x1 = 0.3	4.26 ± 0.11 mPa·s	–
101 kPa, x1 = 0.35	4.375 ± 0.053 mPa·s and 4.4 ± 0.11 mPa·s	3.763 ± 0.05 mPa·s
101 kPa, x1 = 0.4	–	3.799 ± 0.038 mPa·s
101 kPa, x1 = 0.41	4.29 ± 0.11 mPa·s	–
101 kPa, x1 = 0.48	3.913 ± 0.06 mPa·s and 3.97 ± 0.1 mPa·s	3.395 ± 0.053 mPa·s and 3.446 ± 0.089 mPa·s
101 kPa, x1 = 0.57	3.54 ± 0.09 mPa·s	–
101 kPa, x1 = 0.6	–	3.008 ± 0.036 mPa·s
101 kPa, x1 = 0.67	3.08 ± 0.08 mPa·s	–
101 kPa, x1 = 0.73	2.9 ± 0.06 mPa·s	2.507 ± 0.052 mPa·s
101 kPa, x1 = 0.8	–	2.375 ± 0.043 mPa·s
101 kPa, x1 = 0.81	2.62 ± 0.07 mPa·s	–
101 kPa, x2 = 0.047	–	2.054 ± 0.02 mPa·s
101 kPa, x2 = 0.089	–	2.118 ± 0.021 mPa·s
101 kPa, x2 = 0.186	–	2.298 ± 0.026 mPa·s
101 kPa, x2 = 0.2	–	2.3 ± 0.1 mPa·s
101 kPa, x2 = 0.3	–	2.7 ± 0.1 mPa·s
101 kPa, x2 = 0.335	–	2.708 ± 0.037 mPa·s
101 kPa, x2 = 0.522	–	3.449 ± 0.059 mPa·s
101 kPa, x2 = 0.59	–	3.676 ± 0.067 mPa·s
101 kPa, x2 = 0.651	–	3.764 ± 0.073 mPa·s
101 kPa, x2 = 0.702	–	3.674 ± 0.075 mPa·s
101 kPa, x2 = 0.743	–	3.467 ± 0.073 mPa·s
101 kPa, x2 = 0.812	–	2.854 ± 0.064 mPa·s
101 kPa, x2 = 0.867	–	2.232 ± 0.053 mPa·s
101 kPa, x2 = 0.91	–	1.748 ± 0.043 mPa·s
101 kPa, x2 = 0.945	–	1.382 ± 0.035 mPa·s
101 kPa, x2 = 0.975	–	1.11 ± 0.029 mPa·s
101.3 kPa, x1 = 0.012	1.112 ± 0.029 mPa·s	0.986 ± 0.026 mPa·s
101.3 kPa, x2 = 0.1906	2.569 ± 0.067 mPa·s	2.299 ± 0.06 mPa·s
101.3 kPa, x2 = 0.3252	2.966 ± 0.078 mPa·s	2.63 ± 0.069 mPa·s
101.3 kPa, x2 = 0.5203	3.891 ± 0.1 mPa·s	3.38 ± 0.088 mPa·s
101.3 kPa, x2 = 0.6501	4.352 ± 0.11 mPa·s	3.727 ± 0.097 mPa·s
101.3 kPa, x2 = 0.743	3.998 ± 0.1 mPa·s	3.414 ± 0.089 mPa·s
101.3 kPa, x2 = 0.8183	3.231 ± 0.084 mPa·s	2.773 ± 0.072 mPa·s
101.3 kPa, x2 = 0.8668	2.57 ± 0.067 mPa·s	–
101.3 kPa, x2 = 0.9101	2.008 ± 0.052 mPa·s	1.747 ± 0.045 mPa·s
101.3 kPa, x2 = 0.9455	1.575 ± 0.041 mPa·s	1.383 ± 0.036 mPa·s
101.3 kPa, x2 = 0.9751	1.247 ± 0.033 mPa·s	1.101 ± 0.029 mPa·s
101.33 kPa, x1 = 0.00588	1.053 ± 0.052 mPa·s	–
101.33 kPa, x1 = 0.012	1.112 ± 0.054 mPa·s	–
101.33 kPa, x1 = 0.02498	1.264 ± 0.061 mPa·s	–
101.33 kPa, x1 = 0.03901	1.402 ± 0.067 mPa·s	–
101.33 kPa, x1 = 0.04864	1.515 ± 0.072 mPa·s	–
101.33 kPa, x1 = 0.0545	1.559 ± 0.074 mPa·s	–
101.33 kPa, x1 = 0.08993	2.009 ± 0.093 mPa·s	–
101.33 kPa, x1 = 0.1332	2.589 ± 0.12 mPa·s	–
101.33 kPa, x1 = 0.1469	2.743 ± 0.12 mPa·s	–
101.33 kPa, x1 = 0.1874	3.319 ± 0.15 mPa·s	–
101.33 kPa, x1 = 0.2998	4.296 ± 0.19 mPa·s	–
101.33 kPa, x1 = 0.3498	4.385 ± 0.19 mPa·s	–
101.33 kPa, x1 = 0.4498	4.091 ± 0.18 mPa·s	–
101.33 kPa, x1 = 0.5665	3.498 ± 0.16 mPa·s	–
101.33 kPa, x1 = 0.651	3.211 ± 0.14 mPa·s	–
101.33 kPa, x1 = 0.7539	2.743 ± 0.12 mPa·s	–
101.33 kPa, x1 = 0.847	2.514 ± 0.11 mPa·s	–
101.33 kPa, x2 = 0.2097	–	2.291 ± 0.11 mPa·s
101.33 kPa, x2 = 0.3132	–	2.568 ± 0.12 mPa·s
101.33 kPa, x2 = 0.409	–	2.909 ± 0.13 mPa·s
101.33 kPa, x2 = 0.503	–	3.197 ± 0.14 mPa·s
101.33 kPa, x2 = 0.7032	–	3.569 ± 0.16 mPa·s
101.33 kPa, x2 = 0.8053	–	2.858 ± 0.13 mPa·s
101.33 kPa, x2 = 0.9021	–	1.787 ± 0.083 mPa·s
